The text below walks through data of ChEMBL document CHEMBL1909046, “DrugMatrix in vitro pharmacology data”.

The structures appear in SMILES notation.

The target of one assay is Mu-type opioid receptor (Homo sapiens, UniProt P35372). Nature of the assay: DRUGMATRIX: Opiate mu (OP3, MOP) radioligand binding (ligand: [3H] Diprenorphine). The format is cell membranes, CHO-K1, Membrane. The following applies: cho-k1; Not Active = under 50% inhibition at 10 µM.
For another assay, the target named is T1, Neutrophil elastase (Homo sapiens, UniProt P08246).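 Note: inhibition of neutrophil elastase enzyme activity, measured with a p-nitroanilide-linked peptide substrate; in other assays of this panel Not Active means under 50% inhibition at 10 µM.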
T1 sequence (P08246 whole entry): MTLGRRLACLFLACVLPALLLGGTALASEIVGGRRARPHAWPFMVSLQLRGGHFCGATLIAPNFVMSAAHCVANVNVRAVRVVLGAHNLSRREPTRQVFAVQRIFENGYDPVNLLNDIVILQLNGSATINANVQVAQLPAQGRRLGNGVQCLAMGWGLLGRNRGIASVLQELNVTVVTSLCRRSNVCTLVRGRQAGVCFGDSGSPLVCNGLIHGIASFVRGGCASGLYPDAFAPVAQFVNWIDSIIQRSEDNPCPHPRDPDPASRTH
It counts as tissue-based.

The next assay addresses T2, Endothelin-1 receptor (Homo sapiens, UniProt P25101).
T2 sequence (P25101 whole entry): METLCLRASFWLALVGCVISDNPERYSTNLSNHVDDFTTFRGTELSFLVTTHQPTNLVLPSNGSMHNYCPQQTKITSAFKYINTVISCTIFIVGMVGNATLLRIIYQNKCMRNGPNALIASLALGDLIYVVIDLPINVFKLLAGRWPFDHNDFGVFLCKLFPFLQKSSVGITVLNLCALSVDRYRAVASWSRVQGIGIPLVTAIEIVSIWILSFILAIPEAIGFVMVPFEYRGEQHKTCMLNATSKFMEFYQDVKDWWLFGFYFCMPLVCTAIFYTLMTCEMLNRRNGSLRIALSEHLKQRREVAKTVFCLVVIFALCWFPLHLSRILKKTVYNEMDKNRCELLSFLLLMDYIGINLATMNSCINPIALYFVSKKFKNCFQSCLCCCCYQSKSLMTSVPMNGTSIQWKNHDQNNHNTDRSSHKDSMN
It counts as cell membranes, CHO-K1, Membrane. The following applies: cho-k1.

The target in a further assay is T3, Estrogen receptor (Homo sapiens, UniProt P03372). Note: in other assays of this panel Not Active means under 50% inhibition at 10 µM.
T3 sequence (P03372 whole entry): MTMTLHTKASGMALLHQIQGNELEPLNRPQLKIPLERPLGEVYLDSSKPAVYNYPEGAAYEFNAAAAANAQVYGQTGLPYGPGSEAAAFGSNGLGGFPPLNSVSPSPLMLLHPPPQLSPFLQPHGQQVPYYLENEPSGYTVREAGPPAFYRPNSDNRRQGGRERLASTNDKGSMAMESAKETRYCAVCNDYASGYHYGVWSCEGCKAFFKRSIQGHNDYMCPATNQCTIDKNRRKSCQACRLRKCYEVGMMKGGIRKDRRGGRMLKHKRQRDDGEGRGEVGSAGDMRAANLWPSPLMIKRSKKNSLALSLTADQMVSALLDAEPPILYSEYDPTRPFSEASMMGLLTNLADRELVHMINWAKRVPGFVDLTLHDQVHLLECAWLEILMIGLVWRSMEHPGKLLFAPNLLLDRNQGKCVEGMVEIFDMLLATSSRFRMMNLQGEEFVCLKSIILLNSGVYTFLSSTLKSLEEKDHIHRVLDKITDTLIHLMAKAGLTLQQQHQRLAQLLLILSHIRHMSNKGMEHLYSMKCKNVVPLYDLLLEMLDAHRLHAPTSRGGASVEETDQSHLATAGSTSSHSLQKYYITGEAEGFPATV
Conditions: sf9.

Assay [1] has as its target T4, Alpha-1B adrenergic receptor (Rattus norvegicus, UniProt P15823).
T4 sequence (P15823 whole entry): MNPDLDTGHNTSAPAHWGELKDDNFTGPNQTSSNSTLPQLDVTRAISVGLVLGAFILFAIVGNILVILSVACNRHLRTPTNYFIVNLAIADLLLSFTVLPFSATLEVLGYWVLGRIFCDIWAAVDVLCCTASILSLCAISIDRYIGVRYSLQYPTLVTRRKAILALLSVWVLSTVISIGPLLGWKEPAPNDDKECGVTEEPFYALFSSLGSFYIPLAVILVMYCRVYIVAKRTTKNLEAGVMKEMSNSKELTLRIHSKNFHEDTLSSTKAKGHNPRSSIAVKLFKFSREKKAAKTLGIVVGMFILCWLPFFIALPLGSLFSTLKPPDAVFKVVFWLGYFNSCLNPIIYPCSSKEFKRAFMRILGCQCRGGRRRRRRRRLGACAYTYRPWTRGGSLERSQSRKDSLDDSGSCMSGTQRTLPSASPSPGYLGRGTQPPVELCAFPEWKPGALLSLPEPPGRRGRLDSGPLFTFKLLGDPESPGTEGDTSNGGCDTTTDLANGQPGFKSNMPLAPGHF
In words: DRUGMATRIX: Alpha-1B adrenergic receptor radioligand binding (ligand: prazosin). It counts as cell membranes, Wistar, Liver, Membrane. Conditions: Not Active = under 50% inhibition at 10 µM; for Ki: read-out: Ki.

Assay [2] addresses Tyrosine-protein kinase Lck (Homo sapiens, UniProt P06239). Nature of the assay: DRUGMATRIX: Protein Tyrosine Kinase, LCK enzyme inhibition (substrate: Poly(Glu:Tyr)). The format is cell-based, Insect cells. Conditions: Not Active = under 50% inhibition at 10 µM.
A short description of assay [3]: DRUGMATRIX: Glutamate, NMDA, Agonism radioligand binding (ligand: [3H] CGP-39653). The format is cell membranes, Rattus norvegicus, Wistar, Cerebral cortex, Membrane. The following applies: Not Active = under 50% inhibition at 10 µM.

Sequence of Tyrosine-protein kinase Lck (P06239 whole entry): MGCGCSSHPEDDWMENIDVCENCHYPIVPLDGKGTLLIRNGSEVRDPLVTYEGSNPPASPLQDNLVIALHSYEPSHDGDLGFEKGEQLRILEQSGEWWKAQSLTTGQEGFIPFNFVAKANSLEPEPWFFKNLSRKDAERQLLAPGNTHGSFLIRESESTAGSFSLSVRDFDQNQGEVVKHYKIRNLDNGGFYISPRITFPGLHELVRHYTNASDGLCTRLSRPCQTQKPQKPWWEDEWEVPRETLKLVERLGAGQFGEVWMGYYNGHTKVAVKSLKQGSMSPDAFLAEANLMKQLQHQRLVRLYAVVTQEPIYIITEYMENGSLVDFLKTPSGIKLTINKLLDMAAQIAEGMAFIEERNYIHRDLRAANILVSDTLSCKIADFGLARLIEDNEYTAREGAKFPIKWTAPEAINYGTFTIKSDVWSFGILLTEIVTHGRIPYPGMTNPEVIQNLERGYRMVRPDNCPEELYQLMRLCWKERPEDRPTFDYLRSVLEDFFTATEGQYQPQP
Sequence of Mu-type opioid receptor (P35372 whole entry): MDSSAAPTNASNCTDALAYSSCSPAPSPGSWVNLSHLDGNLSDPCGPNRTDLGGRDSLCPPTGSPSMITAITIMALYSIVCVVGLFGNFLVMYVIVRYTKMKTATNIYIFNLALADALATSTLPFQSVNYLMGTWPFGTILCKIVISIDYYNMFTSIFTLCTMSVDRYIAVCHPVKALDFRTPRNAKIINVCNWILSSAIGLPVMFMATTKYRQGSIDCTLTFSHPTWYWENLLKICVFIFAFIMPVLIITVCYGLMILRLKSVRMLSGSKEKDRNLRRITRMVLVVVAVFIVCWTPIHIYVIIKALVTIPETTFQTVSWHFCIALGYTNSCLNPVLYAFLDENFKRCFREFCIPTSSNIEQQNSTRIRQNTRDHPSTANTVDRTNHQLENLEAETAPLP

As to `CCc1oc2ccccc2c1C(=O)c1cc(Br)c(O)c(Br)c1` [BENZBROMARONE], the IC50 entry (on Mu-type opioid receptor; at Neutrophil elastase; against Endothelin-1 receptor; against Estrogen receptor; in assay [1]; in assay [2] (insect cells)) was “Not Active” throughout. Moreover, the IC50 (usually the concentration that inhibits the measured activity by half) in assay [3] is “Not Active”. Moreover, in assay [3], the Ki – broadly, the equilibrium dissociation constant of an inhibitor or competing ligand from its target – is recorded as “Not Active”.
`O=c1cc(-c2ccccc2)oc2ccc3ccccc3c12` [BETA-NAPHTHOFLAVONE]: the IC50 entry (at Mu-type opioid receptor; at Neutrophil elastase; against Endothelin-1 receptor; against Estrogen receptor; in assay [1]; in assay [2] (insect cells)) was “Not Active” throughout. Moreover, the IC50 entry in assay [3] is “Not Active”. Moreover, the Ki entry in assay [3] is “Not Active”.
`CS(=O)(=O)OCCCCOS(C)(=O)=O` [BUSULFAN]: the concentration for half-maximal inhibition (IC50) result (at Mu-type opioid receptor; on Neutrophil elastase; against Endothelin-1 receptor; against Estrogen receptor; in assay [1]; in assay [2] (insect cells)) was “Not Active” each time. Besides, the IC50 result in assay [3] is given as “Not Active”. Also, the Ki entry in assay [3] is on record as “Not Active”.
As to `COc1cc(CNC(=O)CCCC/C=C/C(C)C)ccc1O` [CAPSAICIN], the IC50 result (at Mu-type opioid receptor; on Neutrophil elastase; at Endothelin-1 receptor; against Estrogen receptor; in assay [1]; in assay [2] (insect cells)) was “Not Active” each time. Besides, the IC50 result in assay [3] was “Not Active”. For the same compound, the Ki entry in assay [3] is reported as “Not Active”.
As for `NC(=O)N1c2ccccc2C=Cc2ccccc21` [CARBAMAZEPINE], the IC50 result (at Mu-type opioid receptor; against Neutrophil elastase; at Endothelin-1 receptor; on Estrogen receptor; in assay [1]; in assay [2] (insect cells)) was “Not Active” in each case. The IC50 entry in assay [3] is “Not Active”. The Ki entry in assay [3] was “Not Active”.
On to `CCOC(=O)n1ccn(C)c1=S` [CARBIMAZOLE], for which the IC50 result (at Mu-type opioid receptor; on Neutrophil elastase; against Endothelin-1 receptor; against Estrogen receptor; in assay [1]; in assay [3]) was “Not Active” throughout. The Ki result in assay [2] (insect cells) and in assay [3] was “Not Active” in each case.
Turning to `CO[C@@]1(NC(=O)CSCC#N)C(=O)N2C(C(=O)O)=C(CSc3nnnn3C)CS[C@@H]21` [CEFMETAZOLE], the IC50 entry (on Mu-type opioid receptor; on Neutrophil elastase; at Endothelin-1 receptor; against Estrogen receptor; in assay [1]; in assay [2] (insect cells)) was “Not Active” in each case. Besides, the IC50 entry in assay [3] is “Not Active”. The Ki entry in assay [3] is given as “Not Active”.
Take `CC(C)(Oc1ccc(C2CC2(Cl)Cl)cc1)C(=O)O` (stereo not given) [CIPROFIBRATE]: the IC50 result (on Mu-type opioid receptor; at Neutrophil elastase; against Endothelin-1 receptor; against Estrogen receptor; in assay [1]; in assay [2] (insect cells)) was “Not Active” throughout. Besides, the IC50 result in assay [3] is “Not Active”. Further, in assay [3], the Ki entry was “Not Active”.
In the case of `CC[C@H]1OC(=O)[C@H](C)[C@@H](O[C@H]2C[C@@](C)(OC)[C@@H](O)[C@H](C)O2)[C@H](C)[C@@H](O[C@@H]2O[C@H](C)C[C@H](N(C)C)[C@H]2O)[C@](C)(OC)C[C@@H](C)C(=O)[C@H](C)[C@@H](O)[C@]1(C)O` [CLARITHROMYCIN], the IC50 entry (at Mu-type opioid receptor; at Neutrophil elastase; on Endothelin-1 receptor; on Estrogen receptor; in assay [1]; in assay [2] (insect cells)) was “Not Active” throughout. In addition, the IC50 entry in assay [3] is recorded as “Not Active”. Further, the Ki result in assay [3] is “Not Active”.
`CCC[C@@H]1C[C@@H](C(=O)N[C@@H]([C@H]2O[C@H](SC)[C@H](O)[C@@H](O)[C@H]2O)[C@H](C)Cl)N(C)C1` [CLINDAMYCIN]: the IC50 result (on Mu-type opioid receptor; on Neutrophil elastase; at Endothelin-1 receptor; on Estrogen receptor; in assay [1]; in assay [2] (insect cells)) was “Not Active” each time. Besides, the IC50 result in assay [3] is recorded as “Not Active”. The Ki entry in assay [3] is reported as “Not Active”.
Consider `O=C(O)c1cc(=O)c2c(OCC(O)COc3cccc4oc(C(=O)O)cc(=O)c34)cccc2o1` [CROMOLYN], for which the IC50 entry (on Mu-type opioid receptor; at Neutrophil elastase; against Endothelin-1 receptor; on Estrogen receptor; in assay [1]; in assay [2] (insect cells)) was “Not Active” throughout. Further, the IC50 entry in assay [3] is given as “Not Active”. For the same compound, the Ki entry in assay [3] is recorded as “Not Active”.
Regarding `O=P1(N(CCCl)CCCl)NCCCO1` (stereo not given) [CYCLOPHOSPHAMIDE ANHYDROUS], the IC50 entry (at Mu-type opioid receptor; on Neutrophil elastase; against Endothelin-1 receptor; on Estrogen receptor; in assay [1]; in assay [2] (insect cells)) was “Not Active” in each case. Also, in assay [3], the IC50 result was “Not Active”. Moreover, the Ki result in assay [3] is on record as “Not Active”.
With `CCN[C@@H](C)Cc1cccc(C(F)(F)F)c1` [DEXFENFLURAMINE], the IC50 entry (at Mu-type opioid receptor; against Neutrophil elastase; against Endothelin-1 receptor; at Estrogen receptor; in assay [1]; in assay [2] (insect cells)) was “Not Active” each time. In assay [3], the IC50 result is “Not Active”. For the same compound, in assay [3], the Ki result was “Not Active”.
As to `C[C@H](C(=O)O)c1cccc(C(=O)c2ccccc2)c1` [DEXKETOPROFEN], the concentration for half-maximal inhibition (IC50) result (on Mu-type opioid receptor; against Neutrophil elastase; against Endothelin-1 receptor; against Estrogen receptor; in assay [1]; in assay [2] (insect cells)) was “Not Active” each time. In addition, in assay [3], the IC50 entry is reported as “Not Active”. For the same compound, the Ki entry in assay [3] is on record as “Not Active”.
`CN1C[C@H](C(=O)N[C@]2(C)O[C@@]3(O)[C@@H]4CCCN4C(=O)[C@H](Cc4ccccc4)N3C2=O)C[C@@H]2c3cccc4[nH]cc(c34)C[C@H]21` [DIHYDROERGOTAMINE]: the IC50 entry was “Not Active” at Mu-type opioid receptor; “Not Active” against Neutrophil elastase; “Not Active” on Endothelin-1 receptor; “Not Active” against Estrogen receptor; 8.09 nM in assay [1] (read-out: IC50); “Not Active” in assay [2] (insect cells). Besides, the IC50 result in assay [3] is “Not Active”. For the same compound, the results for the Ki in assay [1] and in assay [3] were 4.48 nM and “Not Active”, respectively.
Turning to `CC(CCc1ccc(O)cc1)NCCc1ccc(O)c(O)c1` (stereo not given) [DOBUTAMINE], the IC50 entry at Mu-type opioid receptor is “Not Active”; at Neutrophil elastase it was “Not Active”; on Endothelin-1 receptor it was “Not Active”; at Estrogen receptor it was “Not Active”; in assay [1] (read-out: IC50), 336 nM; in assay [2] (read-out: IC50), 5520 nM. The 50% inhibitory concentration (IC50) entry in assay [3] is on record as “Not Active”. Moreover, the values for the Ki in assay [1] and in assay [3] were 186 nM and “Not Active”, respectively.
